Assay results as given in US10842814B2, “Use of low dose arsenic for preserving genomic integrity” (Board of Regents of the University of Texas System, priority 2016, dated 2020).
Entries after “also recorded” stand apart in the source; their conditions may differ.

Key:
telomerase = molecular target: T1, telomerase (Homo sapiens, UniProt O14746); experiment: Telomerase activity by TRAP assay; format: cell-based; conditions: HEK 293T, LDA 0 nM to 500 nM for 24 hrs, 12 Gy IR, further 48 hrs
T1 construct: Extracted protein (500 ng) was used to assess telomerase activity by TRAP; endogenous in cells; host or cells: HEK 293T cells
Procedure: FIG. 7. HEK cells were stimulated with ConA, 10 μg/ml. After 24 hrs, LDA was introduced (range from 0 nM to 500 nM) and again incubated 24 hrs. 12 Gy of IR was delivered, cells were incubated an additional 48 hrs and harvested. Extracted protein (500 ng) was used to assess telomerase activity by TRAP, compared with a telomerase positive control and no-Arsenic, no-IR control. HI: heat inactivated.
However, we will test this observation in T lymphocytes, which are known to dynamically regulate telomerase expression. This will better recapitulate the effect of LDA within the hematopoietic compartment.

[1] = Observation of arsenic-induced malignancy in animal model; format: in vivo
From the text: Arsenic has different biological effects in vitro and induces expression of different sets of genes depending on the dose. Our approach with LDA aims to mitigate certain known adverse biological effects. For example, arsenic trioxide is a cytotoxic agent used to treat acute promyelocytic leukemia (APL). However, the dose of arsenic trioxide used for our strategy is much lower than the dose used to treat APL. Arsenic is also a known carcinogen.

[2] = system: human adult foreskin keratinocytes; conditions: cited from earlier work
telomere = conditions: individuals with telomere maintenance disorders; cited from earlier work
[3] = system: mouse embryonic stem cells expressing RAD51^K133A; experiment: Loss of heterozygosity (LOH) assay, miniHPRT deletion, 6-TG resistance; format: cell-based
From the text: FIG. 8. […] NT; no arsenite treatment, WT; wild type embryonic stem cells, KA; mutant embryonic stem cells expressing RAD51^K133A
We performed a loss of heterozygosity (LOH) assay to detect mutations in the HPRT gene [resistance to 6-TG (thioguanine)] utilizing a mouse embryonic stem cells that express RAD51^K133A. We used a knockout-knockin strategy that introduces RAD51^K133A adjacent to the mouse RAD51 promoter while restoring miniHPRT, a positive/negative selection cassette: select for expression in HAT (hypoxanthine, aminopterin, thymidine) and select against expression in 6-TG. We screen for LOH of miniHPRT by selecting in 6-TG. Using this assay, we can detect a broad range of mutations. RAD51 is a recombinase that is essential for DNA double strand break repair and for protecting the nascent strand during replication. The K133A mutation is in the highly conserved Walker A motif and it causes a defect in ATP binding that disables the ability of RAD51 to induce topological changes in duplex DNA in an ATP-dependent manner.
For this assay, mutant mouse embryonic stem cells expressing RAD51^K133A were passaged two times while being selected in HAT to remove any cells that spontaneously deleted miniHPRT. Then LDA and HAT were applied to these cells for 2 days. […] Cells were then seeded onto new plates in 6-TG and colonies were counted 8 days later. […]

[4] = Clinical trial: toxicity and blood counts during myelosuppressive chemotherapy; format: in vivo, human
From the text: Additionally, data from a clinical trial supports a beneficial effect of LDA in patients. The trial had two objectives: 1) to define the lowest safe dose of arsenic trioxide that blocks p53 activation in patients and 2) to assess the potential of LDA in decreasing hematological toxicity from myelosuppressive chemotherapy. Patients scheduled for treatment with at least 4 cycles of myelosuppressive chemotherapy with a minimum of 2 weeks between the cycles were eligible.
The p53 expression level in patients' peripheral lymphocytes was measured as a surrogate marker for p53 activity for the patients. […] For the second stage of the study (second objective), patients were treated with chemotherapy without any LDA pretreatment before cycles 1, 3 and 5. They were treated with intravenous LDA of 0.005 mg/kg for 3 days prior to cycles 2, 4 and 6. […] Because the competing and compounding effects of multi-drug chemotherapy on p53 were felt to affect the p53 activity even in the presence of LDA pretreatment, we decided to focus on p53 activity obtained just prior to chemotherapy administration (on day 1). If the p53 activity level for the subsequent cycle (e.g., cycle 2 for cycle 1, cycle 4 for cycle 3 etc.) was lower than the baseline cycle, p53 was defined as “suppressed” for the pair of cycles. […]

bone marrow cells = experiment: Bone marrow protection against Y-90 ibritumomab tiuxetan-induced damage (H&E, γ-H2AX, TUNEL staining); format: in vivo, BALB/c mice
Procedure: At the indicated time points, mice were sacrificed by cervical […] and bone marrows were harvested for staining. (A) Quantification of γ-H2AX positive cells.
LDA pretreatment was administered through drinking water containing 1 mg/L arsenic trioxide for three days. […] Tissue samples were collected at different time points (3 hours to 5 weeks) after treatment.
Bone marrow damage was analyzed histologically with hematoxylin and eosin (H&E) staining, DNA DSBs were assessed by γ-H2AX staining and apoptosis was detected by terminal deoxynucleotidyl transferase dUTP nick end labeling (TUNEL) staining.

Karpas 422 = experiment: Mouse xenograft model with CD20 expressing lymphoma cell line, tumor volume; format: in vivo
Procedure: Treatments were initiated 1 week after implantation when tumors became palpable. Tumor volumes were measured periodically with calipers. Tumor volume was calculated using the equation: volume=length×width×depth×0.5236 […]. Two independent experiments were done and the tumor volumes were expressed as means±SE.

peripheral T-lymphocytes = experiment: Telomere length of ConA-stimulated peripheral blood T-lymphocytes after radiation or chemotherapy; format: cell-based, human; conditions: 100 nM arsenic trioxide for 24 hours, then 12 Gy X-ray, harvested 48 hours later
Procedure: FIG. 2. T-lymphocytes isolated from healthy donors' peripheral blood were incubated with 10 μg/ml of Concanavalin A overnight. The cells were treated with either solvent or 100 nM arsenic (As) trioxide for 24 hours, followed by 12 Gy of X-ray treatment. Forty-eight hours later, the cells were harvested for telomere length measurement. The results represent four independent experiments. Paired student's t-test was used to calculate the p values.
FIG. 3. (A) Live cell percentage and (B) relative telomere length of T-lymphocytes in response to a serial dilution of etoposide. (C) Live cell percentage and (D) relative telomere length of T-lymphocytes treated with solvent or 160 μM etoposide in the presence or absence of LDA pretreatment.
FIG. 4. (A) Live cell percentage and (B) relative telomere length of T-lymphocytes in response to a serial dilution of doxorubicin. (C) Live cell percentage and (D) relative telomere length of T-lymphocytes treated with solvent or 1.6 μM doxorubicin in the presence or absence of LDA pretreatment.
As one of the first steps to explore the role of LDA in protecting the bone marrow from DNA DSBs as observed in FIG. 1 above, we studied the effect of LDA on telomere length in the setting of IR. We observed the expected shortening of telomere length in the peripheral T-lymphocytes (obtained from donors' peripheral blood and proliferated with ConA) after IR.

[5] = system: T-cell leukemic cell line (Loucy); experiment: Relative telomere length of T-cell leukemic cell line after 12 Gy radiation; format: cell-based; conditions: presence or absence of LDA
From the text: FIG. 5. Relative telomere length of T-cell leukemic cell line (Loucy) after 12 Gy of radiation in the presence or absence of LDA treatment.

[6] = system: mouse embryonic stem (ES) cells (WT, msh2−/−, p53−/−); experiment: Survival fraction of ES cells exposed to γ radiation and LDA; format: cell-based
Procedure: FIG. 6. Dose response to γ radiation and sodium (Na) arsenite. (A, B) Survival fraction curves to determine the working doses. The wild type (WT) cells (black, green) are the parental cells for the msh2 and p53 mutations, respectively. (C, D) Survival fraction curves with msh2−/− and p53−/− cells exposed to γ radiation and LDA (100 nM Na arsenite). Error bars are shown for the average of 3 independent experiments.
To discover LDA essential genes, cell survival and DNA damage/mutation assays will be performed. First we will establish working doses for all control and mutant cells in Table 1 since they will vary depending on the mutation. As a pilot we started with ES cells mutated for Msh2 and p53 since mutations in both are implicated in the development and progression of secondary MDS/AML.
Msh2 is a member of mismatch repair (MMR) important for postreplication repair and homologous recombination regulation while p53 is essential for responses to a variety of stresses including DNA damage and ribosomal stress. Based on the dose response curve (FIGS. 6A, B), cells will be exposed to 100 nM sodium arsenite 24 hours before exposure to 3-6 Gy. […] Since the differences for the […] cells and their control cells are small, we will repeat the experiment with different Na arsenite doses. […]

untransformed cells = experiment: Pretreatment of untransformed cells with LDA: p53, NF-kB, glycolysis; format: cell-based; conditions: in vitro and in vivo studies
From the text: Activation of p53 is one of the major pathways by which DNA damaging agents such as radiation therapy and chemotherapy cause toxicity in normal tissues and it induces a cascade of events that eventually leads to cell senescence or death. […] This metabolic shift provides cells with effective protection against cytotoxic radiation or chemotherapy, coupling the metabolic pathway to cellular resistance. […] This protective effect is selective to normal tissues, as it requires functional p53. Though not every cancer cell has detectable p53 mutation, essentially every cancer cell has dysfunctional p53. Therefore, cancer cells will not be protected by this strategy.
Activation of p53 is one of major pathways by which DNA damaging agents such as IR and chemotherapy cause toxicity in normal tissues, inducing a cascade of events that eventually leads to cell senescence or cell death. […] This metabolic shift provides cells with effective protection against cytotoxic IR or chemotherapy, coupling the metabolic pathway to cellular resistance. […] Importantly, this protective effect is selective to normal tissues, as it requires functional p53. Though not every cancer cell has a detectable p53 mutation, essentially every cancer cell has dysfunctional p53. Therefore, cancer cells will not be protected by this strategy.

T1 sequence (O14746 whole entry): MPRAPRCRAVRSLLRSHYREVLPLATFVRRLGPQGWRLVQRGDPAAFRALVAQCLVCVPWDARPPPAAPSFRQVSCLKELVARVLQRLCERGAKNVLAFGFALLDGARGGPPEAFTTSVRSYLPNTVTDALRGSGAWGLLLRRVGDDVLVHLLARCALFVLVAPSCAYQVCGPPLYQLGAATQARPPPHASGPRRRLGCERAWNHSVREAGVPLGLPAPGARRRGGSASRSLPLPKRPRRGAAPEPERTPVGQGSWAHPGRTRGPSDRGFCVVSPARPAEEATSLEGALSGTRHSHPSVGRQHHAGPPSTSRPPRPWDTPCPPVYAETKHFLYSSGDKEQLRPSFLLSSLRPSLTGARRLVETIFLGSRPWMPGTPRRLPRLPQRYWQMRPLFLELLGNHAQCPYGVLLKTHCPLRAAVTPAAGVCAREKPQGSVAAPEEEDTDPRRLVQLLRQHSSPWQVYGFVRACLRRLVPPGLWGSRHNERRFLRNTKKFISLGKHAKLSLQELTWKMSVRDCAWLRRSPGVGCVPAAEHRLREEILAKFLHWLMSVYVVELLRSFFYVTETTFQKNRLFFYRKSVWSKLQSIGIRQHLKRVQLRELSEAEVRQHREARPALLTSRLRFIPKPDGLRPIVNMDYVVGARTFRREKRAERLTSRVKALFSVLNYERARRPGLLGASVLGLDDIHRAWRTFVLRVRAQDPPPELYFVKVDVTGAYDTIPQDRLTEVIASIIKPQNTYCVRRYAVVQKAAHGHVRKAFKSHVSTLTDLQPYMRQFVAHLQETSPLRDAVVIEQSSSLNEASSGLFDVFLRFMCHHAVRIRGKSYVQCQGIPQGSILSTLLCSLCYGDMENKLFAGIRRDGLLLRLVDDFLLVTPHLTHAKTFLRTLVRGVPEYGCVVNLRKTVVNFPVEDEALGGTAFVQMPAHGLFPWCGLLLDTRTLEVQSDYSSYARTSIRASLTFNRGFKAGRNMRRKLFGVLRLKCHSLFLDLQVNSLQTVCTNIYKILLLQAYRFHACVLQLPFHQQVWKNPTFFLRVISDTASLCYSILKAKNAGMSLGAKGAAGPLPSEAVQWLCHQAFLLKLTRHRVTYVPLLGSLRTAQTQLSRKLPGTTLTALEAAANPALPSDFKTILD
T1 sequence (O60832 whole entry partner): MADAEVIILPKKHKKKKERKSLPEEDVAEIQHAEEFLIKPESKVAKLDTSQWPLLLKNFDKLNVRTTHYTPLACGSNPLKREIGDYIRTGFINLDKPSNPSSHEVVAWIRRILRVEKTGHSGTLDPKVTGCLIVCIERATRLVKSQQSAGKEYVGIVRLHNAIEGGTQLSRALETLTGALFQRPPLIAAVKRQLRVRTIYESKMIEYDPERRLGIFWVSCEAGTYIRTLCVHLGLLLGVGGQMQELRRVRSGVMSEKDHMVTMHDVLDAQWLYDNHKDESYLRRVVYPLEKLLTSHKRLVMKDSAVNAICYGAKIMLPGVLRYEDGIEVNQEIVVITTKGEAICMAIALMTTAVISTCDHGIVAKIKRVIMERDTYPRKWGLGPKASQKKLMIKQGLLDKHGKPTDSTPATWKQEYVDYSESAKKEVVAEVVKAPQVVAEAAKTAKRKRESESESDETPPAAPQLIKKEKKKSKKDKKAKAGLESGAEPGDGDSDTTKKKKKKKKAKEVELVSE
T1 sequence (Q9NPE3 whole entry partner): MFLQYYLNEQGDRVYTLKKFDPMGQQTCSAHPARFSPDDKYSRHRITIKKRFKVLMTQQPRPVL
T1 sequence (Q9NX24 whole entry partner): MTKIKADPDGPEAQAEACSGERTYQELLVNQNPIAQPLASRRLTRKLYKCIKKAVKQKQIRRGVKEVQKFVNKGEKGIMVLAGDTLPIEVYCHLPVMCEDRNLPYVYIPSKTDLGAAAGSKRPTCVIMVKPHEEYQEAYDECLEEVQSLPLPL
T1 sequence (Q9NY12 whole entry partner): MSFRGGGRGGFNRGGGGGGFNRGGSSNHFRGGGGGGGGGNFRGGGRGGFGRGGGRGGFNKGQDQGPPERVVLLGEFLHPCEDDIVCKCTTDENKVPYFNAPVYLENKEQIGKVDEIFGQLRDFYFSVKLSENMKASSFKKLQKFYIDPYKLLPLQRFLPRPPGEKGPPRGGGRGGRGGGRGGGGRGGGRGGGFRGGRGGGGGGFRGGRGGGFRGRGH
T1 sequence (Q9BUR4 whole entry partner): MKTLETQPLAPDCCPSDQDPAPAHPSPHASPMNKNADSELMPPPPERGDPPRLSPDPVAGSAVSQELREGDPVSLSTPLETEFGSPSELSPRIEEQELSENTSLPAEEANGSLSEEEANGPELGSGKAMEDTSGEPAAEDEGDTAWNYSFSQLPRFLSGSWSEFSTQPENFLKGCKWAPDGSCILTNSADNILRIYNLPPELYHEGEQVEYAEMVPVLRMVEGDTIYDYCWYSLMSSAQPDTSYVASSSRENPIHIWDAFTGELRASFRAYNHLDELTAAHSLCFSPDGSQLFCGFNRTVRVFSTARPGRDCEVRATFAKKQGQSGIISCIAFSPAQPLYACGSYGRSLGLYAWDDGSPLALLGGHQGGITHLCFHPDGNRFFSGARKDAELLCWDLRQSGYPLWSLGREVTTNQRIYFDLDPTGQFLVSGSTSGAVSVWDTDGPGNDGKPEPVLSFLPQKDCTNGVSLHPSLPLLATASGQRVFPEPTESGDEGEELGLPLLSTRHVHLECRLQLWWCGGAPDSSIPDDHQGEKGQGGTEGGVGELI

With [AsH3] [arsenic] the “telomerase activity (TRAP)” value (telomerase) was “no obvious difference in telomerase activity” and the arsenic-induced malignancy [1] was “not observed any arsenic-induced malignancy”.

In the case of O[As](O)O [arsenite], the “concentration resulting in induced proliferation with enhanced NF-κB and AP-1 activity” value ([2]; 24 hr) is listed as no more than 5 µM and the “concentration with statistically significant decrease of cell viability” value [2] is listed as no less than 10 µM.

In the case of C#C[C@]1(O)CC[C@H]2[C@@H]3CCC4=Cc5oncc5C[C@]4(C)[C@H]3CC[C@@]21C [danazol], the telomere attrition (telomere) is given as “significantly reduce telomere attrition”.

With O=[As]O [sodium arsenite] the “spontaneous deletion of miniHPRT (percentage of 6-TG-resistant cells)” value ([3]; 5 nM sodium arsenite) was “reduced this deletion” and the “spontaneous deletion of miniHPRT (percentage of 6-TG-resistant cells)” value ([3]; 100 nM sodium arsenite) was “reduced this deletion”.

With arsenic trioxide the “arsenic trioxide related toxicity” value ([4]; patients, first stage, arsenic trioxide intravenously) was “None of these patients experienced any arsenic trioxide related toxicity”.

For arsenic trioxide [LDA], the “bone marrow cell loss (loss of cellularity), H&E staining” value (bone marrow cells; LDA pretreatment (drinking water 1 mg/L arsenic trioxide, three days) before 200 μCi Y-90 ibritumomab tiuxetan via tail vein) was “protected; also recorded: significantly reduced”, the “apoptosis, TUNEL positive cells in bone marrow” value (bone marrow cells; LDA pretreatment before 200 μCi Y-90 ibritumomab tiuxetan) was “protected” and the “DNA DSBs, γ-H2AX positive cells in bone marrow” value (bone marrow cells; LDA pretreatment before 200 μCi Y-90 ibritumomab tiuxetan, 6 hours to 1 week after treatment) was “protected; also recorded: considerably diminished”. For the same compound, the “mean ANC, WBC and Hgb, p53 suppressed group relative to activated group” value ([4]; 26 patients, LDA 0.005 mg/kg for 3 days before myelosuppressive chemotherapy cycles) was “statistically significantly higher; also recorded: better blood counts”, the “growth of the implanted tumors (tumor volume)” value (Karpas 422; LDA pretreatment alone) was “did not have any detectable effect” and the “effect of LDA pretreatment on Y-90-induced tumor growth suppression” value (Karpas 422; LDA pretreatment followed by Y-90 ibritumomab tiuxetan) was “without compromising tumor response; also recorded: no effect”. For the same compound, the “telomere length after IR” value (peripheral T-lymphocytes) was “maintenance of telomere length; also recorded: helps prevent shortening of telomere length”, the “telomere length of leukemic cells” value [5] was “does not make any difference” and the “LDA protection of control and msh2−/− cells from γ radiation (survival fraction)” value ([6]; 100 nM Na arsenite 24 hours before γ radiation) was “protects both control and msh2^−/− cells from γ radiation”. For the same compound, the “LDA-mediated protection in p53−/− cells versus WT (survival fraction)” value ([6]; 100 nM Na arsenite, γ radiation, differences small) was “p53 appears to assist in LDA-mediated protection”, the glycolysis (untransformed cells) was “marked induction of glycolysis” and the “p53 and NF-kB response” value (untransformed cells) was “induces concerted p53 suppression and NF-kB activation”.
